Results on 22 compounds are retold here after PMC10837402, “Unnatural amino acid substitutions to improve in vivo stability and tumor uptake of ^68Ga-labeled GRPR-targeted TacBOMB2 derivatives for cancer imaging with positron emission tomography” (EJNMMI Radiopharmacy and Chemistry, 2024).

“And” between values parts separate entries of the source, which are not always exact repeats. Equal values may be shown once. Starred links: 1 amine or outer side, 2 acyl side, 3 side chain; linkers in the order of their positions; H or OH if unused. Non-standard residues stand in square brackets, D forms with d. Residues, ends and D or L forms follow the SMILES beside them. *: point of attachment. DOTA = O=C(O)CN1CCN(CC(=O)O)CCN(CC(=O)*)CCN(CC(=O)O)CC1; NMeH = CN[C@@H](Cc1c[nH]cn1)C(=O)O; X1 = O=C(CN1CCC(N[*:1])CC1)[*:2]; Tle = CC(C)(C)[C@H](N)C(=O)O; hSer = N[C@@H](CCO)C(=O)O; Thz = O=C(O)[C@@H]1CSCN1; Abu = CC[C@H](N)C(=O)O; Aib = CC(C)(N)C(=O)O

For one assay, the target named is T1, GRPR (Homo sapiens, UniProt P30550).
T1 construct: generated using GRPR-expressing PC-3 cells; endogenous in cells; host or cells: PC-3 cells
T1 sequence (P30550 whole entry): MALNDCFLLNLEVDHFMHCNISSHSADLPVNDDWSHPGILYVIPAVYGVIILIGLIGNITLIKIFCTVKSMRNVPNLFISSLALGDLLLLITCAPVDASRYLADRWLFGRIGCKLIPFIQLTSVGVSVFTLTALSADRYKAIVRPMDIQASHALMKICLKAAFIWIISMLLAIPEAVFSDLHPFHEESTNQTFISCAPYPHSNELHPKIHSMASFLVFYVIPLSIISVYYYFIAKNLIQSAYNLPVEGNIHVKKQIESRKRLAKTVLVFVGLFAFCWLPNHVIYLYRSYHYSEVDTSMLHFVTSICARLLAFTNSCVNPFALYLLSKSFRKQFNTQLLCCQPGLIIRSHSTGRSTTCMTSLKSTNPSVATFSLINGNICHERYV
Kind of assay: Fluorometric calcium release assay in PC-3 cells. The format is cell-based. The conditions noted are these: 50 nM ligand. How it is done:
The growth medium was removed and replaced with a loading buffer containing a calcium-sensitive dye (FLIPR Calcium 6 assay kit from Molecular Devices, San Jose, CA, USA). After incubated at 37 °C for 30 min, the plates were placed in a FlexStation 3 microplate reader (Molecular Devices). Tested ligands (50 nM) or DPBS (negative control) were added to the cells and the fluorescent signals were acquired for 2 min. Agonistic/antagonistic properties of the tested ligands were determined based on the relative fluorescent unit (RFU = max – min) of their generated fluorescent signals.
Turning to `Nc1ncnc2c1ncn2[C@@H]1O[C@H](COP(=O)(O)OP(=O)(O)OP(=O)(O)O)[C@@H](O)[C@H]1O` [ATP, reference compound], the “Ca^2+ efflux (relative fluorescence units, RFU = max – min)” value is 253 ± 46.5 RFUs. Consider `CC(C)C[C@H](NC(=O)[C@H](Cc1c[nH]cn1)NC(=O)CNC(=O)[C@@H](NC(=O)[C@H](C)NC(=O)[C@H](Cc1c[nH]c2ccccc12)NC(=O)[C@H](CCC(N)=O)NC(=O)[C@@H](Cc1ccccc1)NC(=O)CN1CCC(NC(=O)CN2CCN(CC(=O)O)CCN(CC(=O)O)CCN(CC(=O)O)CC2)CC1)C(C)(C)C)C(=O)N1CSC[C@H]1C(N)=O` [Ga-LW01108, Ga-DOTA-Pip-D-Phe-Gln-Trp-Ala-Tle-Gly-His-Leu-Thz-NH2], for which the “Ca^2+ efflux (relative fluorescence units, RFU = max – min)” value worked out at 549 ± 46.7 RFUs. As for `CC(C)C[C@H](NC(=O)[C@H](Cc1c[nH]cn1)N(C)C(=O)CNC(=O)[C@@H](NC(=O)[C@H](C)NC(=O)[C@H](Cc1c[nH]c2ccccc12)NC(=O)[C@H](CCC(N)=O)NC(=O)[C@@H](Cc1ccccc1)NC(=O)CN1CCC(NC(=O)CN2CCN(CC(=O)O)CCN(CC(=O)O)CCN(CC(=O)O)CC2)CC1)C(C)(C)C)C(=O)N1CSC[C@H]1C(N)=O` [Ga-LW01110, Ga-DOTA-Pip-D-Phe-Gln-Trp-Ala-Tle-Gly-NMe-His-Leu-Thz-NH2], the “Ca^2+ efflux (relative fluorescence units, RFU = max – min)” value is 521 ± 43.7 RFUs. Same read-out and setting: the value for `CC(C)C[C@H](NC(=O)[C@H](Cc1c[nH]cn1)N(C)C(=O)CNC(=O)[C@@H](NC(=O)[C@H](C)NC(=O)[C@H](Cc1c[nH]c2ccccc12)NC(=O)[C@H](Cc1c[nH]cn1)NC(=O)[C@@H](Cc1ccccc1)NC(=O)CN1CCC(NC(=O)CN2CCN(CC(=O)O)CCN(CC(=O)O)CCN(CC(=O)O)CC2)CC1)C(C)(C)C)C(=O)N1CSC[C@H]1C(N)=O` [Ga-LW01142, Ga-DOTA-Pip-D-Phe-His-Trp-Ala-Tle-Gly-NMe-His-Leu-Thz-NH2] ({DOTA}-[X1][dF]HWA[Tle]G[NMeH]L[Thz]-NH2) was 559 ± 96.2 RFUs; that for `Cc1ccc2[nH]cc(C[C@H](NC(=O)[C@H](CCC(N)=O)NC(=O)[C@@H](Cc3ccccc3)NC(=O)CN3CCC(NC(=O)CN4CCN(CC(=O)O)CCN(CC(=O)O)CCN(CC(=O)O)CC4)CC3)C(=O)N[C@@H](C)C(=O)N[C@H](C(=O)NCC(=O)N[C@@H](Cc3c[nH]cn3)C(=O)N[C@@H](CC(C)C)C(=O)N3CSC[C@H]3C(N)=O)C(C)C)c2c1` [Ga-LW02023, Ga-DOTA-Pip-D-Phe-Gln-5-Me-Trp-Ala-Val-Gly-His-Leu-Thz-NH2] was 312 ± 45.9 RFUs; that for `Cc1[nH]c2ccccc2c1C[C@H](NC(=O)[C@H](CCC(N)=O)NC(=O)[C@@H](Cc1ccccc1)NC(=O)CN1CCC(NC(=O)CN2CCN(CC(=O)O)CCN(CC(=O)O)CCN(CC(=O)O)CC2)CC1)C(=O)N[C@@H](C)C(=O)N[C@H](C(=O)NCC(=O)N[C@@H](Cc1c[nH]cn1)C(=O)N[C@@H](CC(C)C)C(=O)N1CSC[C@H]1C(N)=O)C(C)C` [Ga-LW02025, Ga-DOTA-Pip-D-Phe-Gln-2-Me-Trp-Ala-Val-Gly-His-Leu-Thz-NH2] was 197 ± 50.3 RFUs.

Turning to `CC(C)C[C@H](NC(=O)[C@H](Cc1c[nH]cn1)N(C)C(=O)CNC(=O)[C@@H](NC(=O)[C@H](C)NC(=O)[C@H](Cc1c[nH]c2c(F)cccc12)NC(=O)[C@H](CCC(N)=O)NC(=O)[C@@H](Cc1ccccc1)NC(=O)CN1CCC(NC(=O)CN2CCN(CC(=O)O)CCN(CC(=O)O)CCN(CC(=O)O)CC2)CC1)C(C)(C)C)C(=O)N1CSC[C@H]1C(N)=O` [Ga-LW02040, Ga-DOTA-Pip-D-Phe-Gln-7-F-Trp-Ala-Tle-Gly-NMe-His-Leu-Thz-NH2], the “Ca^2+ efflux (relative fluorescence units, RFU = max – min)” value came out at 242 ± 44.1 RFUs.

As for “Ga-DOTA-Pip-D-Phe-Gln-7-F-Trp-Ala-Val-Gly-His-Leu-Thz-NH2 [Ga-LW02021]”, the “Ca^2+ efflux (relative fluorescence units, RFU = max – min)” value was 178 ± 53.7 RFUs.

With “Ga-DOTA-Pip-D-Phe-Gln-Trp-Ala-Val-Gly-NMe-His-Leu-Thz-NH2 [Ga-LW01107]”, the “Ca^2+ efflux (relative fluorescence units, RFU = max – min)” value is recorded as 1,004 ± 32.0 RFUs. Take “[D-Phe^6,Leu-NHEt^13,des-Met^14]Bombesin(6–14) [reference compound]”: the “Ca^2+ efflux (relative fluorescence units, RFU = max – min)” value is 38.2 ± 7.20 RFUs.

In the case of bombesin [reference compound], the “Ca^2+ efflux (relative fluorescence units, RFU = max – min)” value was 450 ± 136 RFUs.

Another assay addresses T1, GRPR. Kind of assay: In vitro competition binding assay using PC-3 cells and [^125I-Tyr^4]Bombesin as the radioligand. The settings on record: PC-3 cells, mean ± SD, n = 3, read-out: GRPR binding affinity (Ki). How it is done:
[2022], [2023]; Bratanovic et al. [2022]). The assays were conducted in triplicate with varied concentrations (10 μM to 1 pM) of tested ligands. […] The growth medium was replaced with 400 μL of reaction medium (RPMI 1640 containing 2 mg/mL BSA, and 20 mM HEPES), then the plates were incubated at 37 °C for 60 min. […] Data were analyzed using nonlinear regression with GraphPad (San Diego, CA, USA) Prism 8 software.
The Ki is the equilibrium dissociation constant of an inhibitor or competing ligand from its target. As for `CC(C)C[C@H](NC(=O)[C@H](Cc1c[nH]cn1)NC(=O)CNC(=O)[C@@H](NC(=O)C(C)(C)NC(=O)[C@H](Cc1c[nH]c2ccccc12)NC(=O)[C@H](CCC(N)=O)NC(=O)[C@H](N)Cc1ccccc1)C(C)C)C(=O)N1CSC[C@H]1C(N)=O` [LW01075, D-Phe-Gln-Trp-Aib-Val-Gly-His-Leu-Thz-NH2] (H-[dF]QW[Aib]VGHL[Thz]-NH2), the Ki was > 150 nM and 2410 nM.

As to `CC[C@H](NC(=O)[C@H](Cc1c[nH]c2ccccc12)NC(=O)[C@H](CCC(N)=O)NC(=O)[C@H](N)Cc1ccccc1)C(=O)N[C@H](C(=O)NCC(=O)N[C@@H](Cc1c[nH]cn1)C(=O)N[C@@H](CC(C)C)C(=O)N1CSC[C@H]1C(N)=O)C(C)C` [LW01078, D-Phe-Gln-Trp-2-Abu-Val-Gly-His-Leu-Thz-NH2] (H-[dF]QW[Abu]VGHL[Thz]-NH2), the inhibitory constant (Ki) was determined as 27.2 ± 8.62 nM. With `CC[C@H](NC(=O)[C@H](C)NC(=O)[C@H](Cc1c[nH]c2ccccc12)NC(=O)[C@H](CCC(N)=O)NC(=O)[C@H](N)Cc1ccccc1)C(=O)NCC(=O)N[C@@H](Cc1c[nH]cn1)C(=O)N[C@@H](CC(C)C)C(=O)N1CSC[C@H]1C(N)=O` [LW01083, D-Phe-Gln-Trp-Ala-2-Abu-Gly-His-Leu-Thz-NH2], the Ki was > 150 nM and 406 nM.

Consider `CC(C)C[C@H](NC(=O)[C@H](Cc1c[nH]cn1)NC(=O)CNC(=O)[C@@H](NC(=O)[C@H](C)NC(=O)[C@H](Cc1c[nH]c2cc(Cl)ccc12)NC(=O)[C@H](CCC(N)=O)NC(=O)[C@H](N)Cc1ccccc1)C(C)C)C(=O)N1CSC[C@H]1C(N)=O` [LW01137, D-Phe-Gln-6-Cl-Trp-Ala-Val-Gly-His-Leu-Thz-NH2], for which the Ki is > 150 nM and 829 nM. Still for that read-out and setting: for `Cc1ccc2c(C[C@H](NC(=O)[C@H](CCC(N)=O)NC(=O)[C@H](N)Cc3ccccc3)C(=O)N[C@@H](C)C(=O)N[C@H](C(=O)NCC(=O)N[C@@H](Cc3c[nH]cn3)C(=O)N[C@@H](CC(C)C)C(=O)N3CSC[C@H]3C(N)=O)C(C)C)c[nH]c2c1` [LW01171, D-Phe-Gln-6-Me-Trp-Ala-Val-Gly-His-Leu-Thz-NH2] the value was > 150 nM and 1450 nM; for `CC(C)C[C@H](NC(=O)[C@H](Cc1c[nH]cn1)NC(=O)CNC(=O)[C@@H](NC(=O)[C@H](C)NC(=O)[C@H](Cc1c[nH]c2ccc(O)cc12)NC(=O)[C@H](CCC(N)=O)NC(=O)[C@H](N)Cc1ccccc1)C(C)C)C(=O)N1CSC[C@H]1C(N)=O` [LW01173, D-Phe-Gln-5-OH-Trp-Ala-Val-Gly-His-Leu-Thz-NH2], > 150 nM and 2030 nM; for `CC(C)C[C@H](NC(=O)[C@H](Cc1c[nH]cn1)NC(=O)CNC(=O)[C@@H](NC(=O)[C@H](C)NC(=O)[C@H]1Cc2c([nH]c3ccccc23)CN1C(=O)[C@H](CCC(N)=O)NC(=O)[C@H](N)Cc1ccccc1)C(C)C)C(=O)N1CSC[C@H]1C(N)=O` [LW01191, D-Phe-Gln-D-Tpi-Ala-Val-Gly-His-Leu-Thz-NH2], over 10000 nM.

In the case of `CC(C)=C(NC(=O)[C@H](C)NC(=O)[C@H](Cc1c[nH]c2ccccc12)NC(=O)[C@H](CCC(N)=O)NC(=O)[C@H](N)Cc1ccccc1)C(=O)NCC(=O)N[C@@H](Cc1c[nH]cn1)C(=O)N[C@@H](CC(C)C)C(=O)N1CSC[C@H]1C(N)=O` [LW02011, D-Phe-Gln-Trp-Ala-2,3-dehydro-Val-Gly-His-Leu-Thz-NH2], the Ki was over 10000 nM. With `CC(C)C[C@H](NC(=O)[C@H](Cc1c[nH]cn1)NC(=O)CNC(=O)[C@@H](NC(=O)[C@H](C)NC(=O)[C@H](Cc1c[nH]c2ncccc12)NC(=O)[C@H](CCC(N)=O)NC(=O)[C@H](N)Cc1ccccc1)C(C)C)C(=O)N1CSC[C@H]1C(N)=O` [LW02013, D-Phe-Gln-7-Aza-Trp-Ala-Val-Gly-His-Leu-Thz-NH2], the inhibition constant (Ki) is over 150 nM. As to `CC(C)C[C@H](NC(=O)[C@H](Cc1c[nH]cn1)NC(=O)CNC(=O)[C@@H](NC(=O)[C@H](C)NC(=O)[C@H](Cc1c[nH]c2ccccc12)NC(=O)[C@H](CCC(N)=O)NC(=O)[C@H](N)Cc1ccccc1)C1CCC1)C(=O)N1CSC[C@H]1C(N)=O` [LW02019, D-Phe-Gln-Trp-Ala-cyclobutaneacetic acid-Gly-His-Leu-Thz-NH2], the Ki was determined as 35.7 ± 27.4 nM. With `CC(C)C[C@H](NC(=O)[C@H](Cc1c[nH]cn1)NC(=O)CNC(=O)[C@@H](NC(=O)[C@H](C)NC(=O)[C@H](Cc1c[nH]c2ccccc12)NC(=O)[C@H](CCO)NC(=O)[C@H](N)Cc1ccccc1)C(C)C)C(=O)N1CSC[C@H]1C(N)=O` [LW02030, D-Phe-Hse-Trp-Ala-Val-Gly-His-Leu-Thz-NH2] (H-[dF][hSer]WAVGHL[Thz]-NH2), the Ki is > 150 nM and 196 nM.
